BindingDB's records for doi:10.1021/jm00196a019 (1979)

Tested on: Enterococcus faecalis
Assay: Antibacterial activity against Streptococcus faecalis assessed as growth inhibition

`Nc1nc(N)c2cc(S(=O)(=O)c3ccc4ccccc4c3)ccc2n1` [6-naphthalen-2-ylsulfonylquinazoline-2,4-diamine] showed an IC50 of 0.02 nM.
